Measured values as given in ChEMBL document CHEMBL3885881, “DrugMatrix”.

Species: Rattus norvegicus
Test: DrugMatrix - Regimen: Daily Repeat
Assay type: toxicity, organism-based, Sprague-Dawley
Design: regimen Daily Repeat, gender Male, age 6-8 weeks
Details: in vivo, po, 2 mg/kg, route oral GAVAGE, dose level High, vehicle 100 % WATER; for ABSOLUTE BASOPHIL / ABSOLUTE EOSINOPHIL / ABSOLUTE LYMPHOCYTE / ABSOLUTE MONOCYTE / ABSOLUTE SEGMENTED NEUTROPHIL / BASOPHIL / EOSINOPHIL / ERYTHROCYTE COUNT / HEMATOCRIT / HEMOGLOBIN / LEUKOCYTE COUNT / LYMPHOCYTE / MEAN CORPUSCULAR HEMOGLOBIN / MEAN CORPUSCULAR HEMOGLOBIN CONCENTRATION / MEAN CORPUSCULAR VOLUME / MONOCYTE / NEUTROPHIL / NUCLEATED RED BLOOD CELLS / PLATELET COUNT: tissue Blood
[1] = 72 h, tissue Plasma, time 3 day
[2] = 120 h, tissue Plasma, time 5 day

O=[Se]([O-])[O-].[Na+].[Na+] [SODIUM SELENITE]
ABSOLUTE BASOPHIL (72 h, time 3 day): 0 CELLS/uL | ABSOLUTE EOSINOPHIL (72 h, time 3 day): 0 CELLS/uL | ABSOLUTE LYMPHOCYTE (72 h, time 3 day): 12300.67 CELLS/uL | ABSOLUTE MONOCYTE (72 h, time 3 day): 763.67 CELLS/uL | ABSOLUTE SEGMENTED NEUTROPHIL (72 h, time 3 day): 2435.67 CELLS/uL | BASOPHIL (72 h, time 3 day): 0% | EOSINOPHIL (72 h, time 3 day): 0% | ERYTHROCYTE COUNT (72 h, time 3 day): 6.2 x10E6/uL | HEMATOCRIT (72 h, time 3 day): 38.47% | HEMOGLOBIN (72 h, time 3 day): 14.1 G/DL | LEUKOCYTE COUNT (72 h, time 3 day): 15.5 x10E3/uL | LYMPHOCYTE (72 h, time 3 day): 80% | MEAN CORPUSCULAR HEMOGLOBIN (72 h, time 3 day): 22.77 pg | MEAN CORPUSCULAR HEMOGLOBIN CONCENTRATION (72 h, time 3 day): 36.7 G/DL | MEAN CORPUSCULAR VOLUME (72 h, time 3 day): 62.07 fL | MONOCYTE (72 h, time 3 day): 5% | NEUTROPHIL (72 h, time 3 day): 15% | NUCLEATED RED BLOOD CELLS (72 h, time 3 day): 0 /100WBC | PLATELET COUNT (72 h, time 3 day): 701.33 x10E3/uL | ALANINE AMINOTRANSFERASE [1]: 84.33 u/L | ALBUMIN [1]: 4.57 G/DL | ALKALINE PHOSPHATASE [1]: 506.33 u/L | ASPARTATE AMINOTRANSFERASE [1]: 143.67 u/L | BLOOD UREA NITROGEN [1]: 15.67 mg/dL | CARBON DIOXIDE [1]: 24 mmol/L | CHLORIDE [1]: 102.33 MEQ/L | CHOLESTEROL [1]: 121.33 mg/dL | CREATININE [1]: 0.18 mg/dL | GLUCOSE [1]: 145.67 mg/dL | LACTATE DEHYDROGENASE [1]: 321.67 u/L | LIPASE [1]: 9 u/L | PHOSPHORUS [1]: 12.8 mg/dL | POTASSIUM [1]: 5.73 MEQ/L | SODIUM [1]: 146 MEQ/L | TOTAL BILIRUBIN [1]: 0.23 mg/dL | TOTAL PROTEIN [1]: 6.53 G/DL | URIC ACID [1]: 1.43 mg/dL | ABSOLUTE BASOPHIL (120 h, time 5 day): 0 CELLS/uL | ABSOLUTE EOSINOPHIL (120 h, time 5 day): 0 CELLS/uL | ABSOLUTE LYMPHOCYTE (120 h, time 5 day): 10507.33 CELLS/uL | ABSOLUTE MONOCYTE (120 h, time 5 day): 251 CELLS/uL | ABSOLUTE SEGMENTED NEUTROPHIL (120 h, time 5 day): 875 CELLS/uL | BASOPHIL (120 h, time 5 day): 0% | EOSINOPHIL (120 h, time 5 day): 0% | ERYTHROCYTE COUNT (120 h, time 5 day): 5.43 x10E6/uL | HEMATOCRIT (120 h, time 5 day): 33.4% | HEMOGLOBIN (120 h, time 5 day): 12.4 G/DL | LEUKOCYTE COUNT (120 h, time 5 day): 11.63 x10E3/uL | LYMPHOCYTE (120 h, time 5 day): 90.33% | MEAN CORPUSCULAR HEMOGLOBIN (120 h, time 5 day): 22.87 pg | MEAN CORPUSCULAR HEMOGLOBIN CONCENTRATION (120 h, time 5 day): 37.17 G/DL | MEAN CORPUSCULAR VOLUME (120 h, time 5 day): 61.53 fL | MONOCYTE (120 h, time 5 day): 2% | NEUTROPHIL (120 h, time 5 day): 7.67% | NUCLEATED RED BLOOD CELLS (120 h, time 5 day): 0 /100WBC | PLATELET COUNT (120 h, time 5 day): 896.33 x10E3/uL | ALANINE AMINOTRANSFERASE [2]: 56.33 u/L | ALBUMIN [2]: 4.77 G/DL | ALKALINE PHOSPHATASE [2]: 396 u/L | ASPARTATE AMINOTRANSFERASE [2]: 80.67 u/L | BLOOD UREA NITROGEN [2]: 12.33 mg/dL | CARBON DIOXIDE [2]: 33.33 mmol/L | CHLORIDE [2]: 98.33 MEQ/L | CHOLESTEROL [2]: 86.33 mg/dL | CREATININE [2]: 0.14 mg/dL | GLUCOSE [2]: 141 mg/dL | LACTATE DEHYDROGENASE [2]: 84 u/L | LIPASE [2]: 8.33 u/L | PHOSPHORUS [2]: 13.2 mg/dL | POTASSIUM [2]: 6.3 MEQ/L | SODIUM [2]: 145.1 MEQ/L | TOTAL BILIRUBIN [2]: 0.2 mg/dL | TOTAL PROTEIN [2]: 6.87 G/DL
